Reference: patent publication US20190053492A1, “SUBSTITUTED PYRIDINE COMPOUNDS AS PESTICIDES” (Bayer CropScience Aktiengesellschaft, priority 2016, published 2019)
Like-named read-outs stand apart in the source and are kept apart here.

Legend:
[1] = log P by HPLC on reversed-phase column (C 18), EEC Directive 79/831 Annex V.A8; type: physicochemical; conditions: 55° C.; for LOGP_HCOOH: log P (HCOOH); for chromatographic logP: reversed-phase HPLC column (C 18)
Procedure: Temperature: 55° C. […] Called log P (HCOOH) in the table. […] Called log P (neutral) in the table.

Ctenocephalides felis = Ctenocephalides felis oral test; type: in vivo; conditions: application rate 100 ppm in citrated cattle blood, after 2 days, adult cat fleas; for pest or weed control at 100 ppm: Ctenocephalides felis, po, 48 h, read-out: efficacy (kill in %)
Procedure: Ctenocephalides felis—Oral Test Solvent: dimethyl sulphoxide To produce a suitable active ingredient formulation, 10 mg of active ingredient are mixed with 0.5 ml of dimethyl sulphoxide. Dilution with citrated cattle blood gives the desired concentration. About 20 unfed adult cat fleas (Ctenocephalides felis) are placed into a chamber which is closed at the top and bottom with gauze. A metal cylinder whose bottom end is closed with parafilm is placed onto the chamber. The cylinder contains the blood/active ingredient formulation, which can be imbibed by the fleas through the parafilm membrane. After 2 days, the kill in % is determined. 100% means that all of the fleas have been killed; 0% means that none of the fleas have been killed.

Phaedon cochleariae = Phaedon cochleariae spray test; type: in vivo; conditions: after 7 days, Chinese cabbage leaf discs
Outline: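 Larval kill read at day 7 as percent, where 100% means every larva dead and 0% none; larvae were placed on dried Brassica pekinensis leaf discs previously sprayed with the formulation (acetone/dimethylformamide solvent, alkylaryl polyglycol ether emulsifier, water).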

Spodoptera frugiperda = Spodoptera frugiperda spray test; type: in vivo; conditions: after 7 days, maize leaf discs; for pest or weed control at 100 g/ha / pest or weed control at 500 g/ha: Spodoptera frugiperda, foliar, 168 h, read-out: efficacy (caterpillars killed)
Outline: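 Efficacy in % was scored at 7 days against armyworm caterpillars placed on dried, compound-sprayed Zea mays leaf discs. Compound was dissolved in acetone/dimethylformamide and diluted in water with 1000 ppm alkylaryl polyglycol ether. 100% means all caterpillars were killed.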

[2] = acidic range pH 2.7, 0.1% aqueous formic acid and acetonitrile, reversed-phase column (C 18)
[3] = log P, neutral range, HPLC on reversed-phase column (C 18)
[4] = acidic range at pH 2.7, 0.1% aqueous formic acid and acetonitrile, HPLC on reversed-phase column (C 18)
[5] = pH 2.7, LC-MS acidic range, pH 2.7, 0.1% formic acid/acetonitrile, read-out: log P (acidic) / log P (HCOOH)
[6] = pH 7.8, LC-MS neutral range, pH 7.8, ammonium hydrogencarbonate/acetonitrile, read-out: log P (neutral)
[7] = log P (neutral), HPLC reversed-phase column (C 18)

LOGP_HCOOH [1, 2] | LOGP_NEUTRAL [1, 3] | LOGP_HCOOH [1, 4] | Compound | efficacy (kill in %) (Ctenocephalides felis) [%] | efficacy (beetle larvae killed) (Phaedon cochleariae; application rate 500 g/ha) [%] | efficacy (caterpillars killed) (Spodoptera frugiperda; application rate 500 g/ha) [%] | efficacy (beetle larvae killed) (Phaedon cochleariae; application rate 100 g/ha) [%] | efficacy (caterpillars killed) (Spodoptera frugiperda; application rate 100 g/ha) [%] | chromatographic logP [1, 5] | chromatographic logP [1, 6] | pest or weed control at 100 ppm (Ctenocephalides felis) [%] | pest or weed control at 100 g/ha (Spodoptera frugiperda; application rate 100 g/ha) [%] | pest or weed control at 500 g/ha (Spodoptera frugiperda; application rate 500 g/ha) [%] | LOGP_NEUTRAL [1, 7] | pest or weed control at 500 g/ha (Phaedon cochleariae; Phaedon cochleariae, foliar, 168 h, application rate 500 g/ha, read-out: efficacy (beetle larvae killed)) [%]
3.83 | – | – | N#Cc1cccc(CNC(=O)c2cc(-c3ccc(C(F)(F)F)cc3)cc(NC(=O)C3CC3)n2)c1 [Example I-004] | 100 | 100 | 100 | – | – | – | – | – | – | – | – | –
3.15 | 3.13 | – | CC(=O)Nc1cc(-c2ccc(C(F)(F)F)cc2)cc(C(=O)NCc2ccc(C#N)cc2)n1 [Example I-017] | 98 | 100 | 100 | – | – | – | – | – | – | – | – | –
4.29 | 4.16 | – | O=C(NCc1ccc([N+](=O)[O-])cc1F)c1cc(-c2ccc(OC(F)(F)F)cc2)cc(NC(=O)C2CC2)n1 [Example I-102] | 100 | 100 | 100 | 100 | 83 | – | – | – | – | – | – | –
– | – | 4.64 | O=C(NCc1ccc(F)c(C(F)(F)F)c1)c1cc(-c2ccc(OC(F)(F)F)cc2)cc(NC(=O)C2CC2)n1 [Example I-226] | 100 | 100 | 100 | – | 83 | – | – | – | – | – | – | –
– | 4.89 | 5.11 | O=C(NCC1CCCCC1)c1cc(-c2ccc(OC(F)(F)F)cc2)cc(NC(=O)C2CC2)n1 [Example I-167] | 90 | – | – | – | – | – | – | – | – | – | – | –
3.78 | 3.68 | – | N#CC1(NC(=O)c2cc(-c3ccc(OC(F)(F)F)cc3)cc(NC(=O)C3CC3)n2)CCC1 [Example I-109] | 100 | 100 | 100 | – | – | – | – | – | – | – | – | –
– | 2.47 | 2.53 | N#Cc1ccc(CNC(=O)c2cc(-c3ccc([S+]([O-])C(F)F)cc3)cc(NC(=O)C3CC3)n2)cc1 (stereo not drawn) [Example I-179] | 100 | 100 | 83 | 83 | – | – | – | – | – | – | – | –
– | – | 3.15 | N#CCNC(=O)c1cc(-c2ccc(OC(F)(F)F)cc2)cc(NC(=O)C2CC2)n1 [Example I-131] | 100 | 100 | 100 | – | 100 | – | – | – | – | – | – | –
– | 3.30 | 2.88 | O=C(NCc1ccccn1)c1cc(-c2ccc(OC(F)(F)F)cc2)cc(NC(=O)C2CC2)n1 [Example I-116] | 100 | 100 | 100 | 100 | – | – | – | – | – | – | – | –
3.39 | 3.29 | – | N#CC1(NC(=O)c2cc(-c3ccc(OC(F)(F)F)cc3)cc(NC(=O)C3CC3)n2)CC1 [Example I-076] | 100 | 100 | 100 | 100 | 100 | – | – | – | – | – | – | –
3.58 | 3.47 | – | CC(C)C(=O)Nc1cc(-c2ccc(OC(F)(F)F)cc2)cc(C(=O)NC2(C#N)CC2)n1 [Example I-075] | 100 | 100 | 100 | – | – | – | – | – | – | – | – | –
– | 3.14 | 3.25 | NC(=S)C1(NC(=O)c2cc(-c3ccc(OC(F)(F)F)cc3)cc(NC(=O)C3CC3)n2)CC1 [Example I-189] | 100 | 100 | 100 | 100 | 100 | – | – | – | – | – | – | –
3.28 | 3.18 | – | N#CC1(NC(=O)c2cc(-c3ccc(C(F)(F)F)cc3)cc(NC(=O)C3CC3)n2)CC1 [Example I-041] | 95 | 100 | 100 | 100 | 100 | – | – | – | – | – | – | –
4.37 | 5.54 | – | O=C(Cc1ccc(C(F)(F)F)cc1)Nc1cc(-c2ccc(C(F)(F)F)cc2)cc(C(=O)NC2CC2)n1 [Example I-088] | 90 | – | 83 | – | 100 | – | – | – | – | – | – | –
4.79 | 4.61 | – | O=C(NCc1ccc2c(c1)OC(F)(F)O2)c1cc(-c2ccc(OC(F)(F)F)cc2)cc(NC(=O)C2CC2)n1 [Example I-095] | 95 | 83 | 100 | – | – | – | – | – | – | – | – | –
3.49 | 3.37 | – | N#Cc1ccc(CNC(=O)c2cc(-c3ccc(OC(F)(F)F)cc3)cc(NC(=O)C3CC3)n2)cn1 [Example I-051] | 100 | 100 | 100 | 100 | 100 | – | – | – | – | – | – | –
3.21 | – | – | CCONC(=O)c1cc(-c2ccc(OC(F)(F)F)cc2)cc(NC(=O)C2CC2)n1 [Example I-235] | 95 | 100 | – | – | – | – | – | – | – | – | 3.14 | –
– | – | 3.84 | C#CC(C)NC(=O)c1cc(-c2ccc(OC(F)(F)F)cc2)cc(NC(=O)C2CC2)n1 (stereo not drawn) [Example I-130] | 100 | 100 | 100 | 100 | 83 | – | – | – | – | – | – | –
4.80 | 4.74 | – | O=C(NCc1ccc(C(F)(F)F)cc1F)c1cc(-c2ccc(OC(F)(F)F)cc2)cc(NC(=O)C2CC2)n1 [Example I-065] | 95 | 83 | 100 | – | 100 | – | – | – | – | – | – | –
– | 4.19 | 4.33 | CC(C)C(=O)Nc1cc(-c2ccc(OC(F)(F)F)cc2)cc(C(=O)NCc2cc(F)c(C#N)cc2F)n1 [Example I-110] | 100 | 100 | 100 | 100 | 100 | – | – | – | – | – | – | –
– | 4.41 | 4.51 | N#Cc1ccc(CNC(=O)c2cc(-c3ccc(C(F)(C(F)(F)F)C(F)(F)F)cc3)cc(NC(=O)C3CC3)n2)cc1 [Example I-150] | 95 | – | 100 | – | 100 | – | – | – | – | – | – | –

Compound | LOGP_HCOOH [1, 2] | LOGP_NEUTRAL [1, 3] | LOGP_HCOOH [1, 4] | efficacy (kill in %) (Ctenocephalides felis) [%] | efficacy (beetle larvae killed) (Phaedon cochleariae; application rate 500 g/ha) [%] | efficacy (caterpillars killed) (Spodoptera frugiperda; application rate 500 g/ha) [%] | efficacy (beetle larvae killed) (Phaedon cochleariae; application rate 100 g/ha) [%] | efficacy (caterpillars killed) (Spodoptera frugiperda; application rate 100 g/ha) [%] | chromatographic logP [1, 5] | chromatographic logP [1, 6] | pest or weed control at 100 ppm (Ctenocephalides felis) [%] | pest or weed control at 100 g/ha (Spodoptera frugiperda; application rate 100 g/ha) [%] | pest or weed control at 500 g/ha (Spodoptera frugiperda; application rate 500 g/ha) [%] | LOGP_NEUTRAL [1, 7] | pest or weed control at 500 g/ha (Phaedon cochleariae; Phaedon cochleariae, foliar, 168 h, application rate 500 g/ha, read-out: efficacy (beetle larvae killed)) [%]
COC(=O)N(Cc1ccc(C#N)cc1)C(=O)c1cc(-c2ccc(OC(F)(F)F)cc2)cc(N(C(=O)OC)C(=O)C2CC2)n1 [Example I-232, Methyl (4-cyanobenzyl)({6-[(cyclopropylcarbonyl)(methoxycarbonyl)amino]-4-[4-(trifluoromethoxy)phenyl]pyridin-2-yl}carbonyl)carbamate] | – | 4.31 | 4.30 | – | – | – | – | – | 4.3 | 4.31 | 100 | 100 | 100 | – | –
COC(=O)N(C(=O)C1CC1)c1cc(-c2ccc(OC(F)(F)F)cc2)cc(C(=O)NCc2ccc(C#N)cc2)n1 [Example I-233, Methyl {6-[(4-cyanobenzyl)carbamoyl]-4-[4-(trifluoromethoxy)phenyl]pyridin-2-yl}(cyclopropylcarbonyl)carbamate] | 3.90 | – | – | – | – | – | – | – | 3.9 | 3.91 | 100 | 100 | 100 | 3.91 | 100
